Consider twelve molecules from patent US20030039673A1, “DISINFECTION BY PARTICLE-BOUND AND INS[…]” (priority 1997, published 2003).

One series relates to EMC virus. Put plainly: Viral end point assay of EMC-spiked plasma. The class given is cell-based.
Series [1] in a line: Detergent binding to resin, foaming of supernatant. The class given is physicochemical. To be noted: 10 mM detergent solution incubated with resin beads. Set-up: key: foaming presence (+); absence (−).
The nature of series [2]: Detergent binding to resin, foaming of supernatant. The class given is physicochemical. Also on record: key: foaming presence (+); absence (−). To be noted: 10 mM detergent solution incubated with resin beads. This is another data set of the same source.
Series [3] in a line: Detergent binding to resin, foaming of supernatant. The class given is physicochemical. Also on record: key: foaming presence (+); absence (−). To be noted: 10 mM detergent solution incubated with resin beads. The source holds these as a separate data set.
For the next series, the system named is viruses. The conditions noted are these: even in the presence of plasma proteins; basis of copending application Ser. No. 08/785,984; cited from earlier work.

The molecule `Oc1cc(Cl)ccc1Oc1ccc(Cl)cc1Cl` [Triclosan, triclosan] displayed a Titer in the series on EMC virus (100 mM triclosan in 2% aqueous Triton X-100, 5 mL added to 50 mL EMC-spiked plasma, 60 min room temperature) of 0.
As to Triton X-100, the “foaming of supernatant as indicator of detergent presence, Calbiosorb” value (“foaming of supernatant as indicator … Calbiosorb” below) in series [1] is “−”. Further, the “foaming of supernatant as indicator of detergent presence, Purolite” value (“foaming of supernatant as indicator … Purolite” below) in series [2] is “+”. Further, in the series on red blood cells (RBC), the hemolysis result is “immediate hemolysis”. In addition, the “foaming of supernatant as indicator of detergent presence, Polystyrene” value (“foaming of supernatant … Polystyrene” below) in series [3] is on record as “+”. In addition, the “virucidal effectiveness compared with Triton plus triclosan” value in the series on EMC virus (0.2% Triton alone) is recorded as “not nearly effective as Triton plus triclosan”.
benzalkonium chloride [BC]: the “foaming of supernatant as indicator … Calbiosorb” value in series [1] is “−”. The “foaming of supernatant … Polystyrene” value in series [3] was “+”.
In the same order, the values of `CCCCCCCCCCCCCC[N+](C)(C)C.[Br-]` [TTAB, tetradecyltrimethylammonium bromide] are “−” and “+”.
With `CCCCCCCCOC(=O)CC(C(=O)OCCCCCCCC)S(=O)(=O)O` (stereo not drawn) [DSS, dioctyl sulfosuccinate], in series [1], the “foaming of supernatant as indicator … Calbiosorb” value is recorded as “−”. In addition, the “foaming of supernatant as indicator … Purolite” value in series [2] is “−”. In addition, the “foaming of supernatant … Polystyrene” value in series [3] is reported as “+”.
On to `C[C@H](CCC(=O)NCCC[N+](C)(C)CC(O)CS(=O)(=O)[O-])[C@H]1CC[C@H]2[C@@H]3[C@H](O)C[C@@H]4C[C@H](O)CC[C@]4(C)[C@H]3C[C@H](O)[C@]12C` (stereo partly drawn) [CHAPSO, 3-[(3-Chloramidopropyl)-dimethylammonio]-2-hydroxyl 1-propanesulfanate], for which the “foaming of supernatant as indicator … Calbiosorb” value in series [1] is listed as “−”. Moreover, the “foaming of supernatant … Polystyrene” value in series [3] is “+”.
As to `CCCCCCCCCCCCOS(=O)(=O)[O-].[Na+]` [SDS, sodium dodecylsulfate], the “foaming of supernatant as indicator … Calbiosorb” value in series [1] was “−”. Besides, the “foaming of supernatant as indicator … Purolite” value in series [2] was “−”. Further, the “foaming of supernatant … Polystyrene” value in series [3] is on record as “+”.
Regarding `C[C@H](CCC(=O)O)[C@H]1CC[C@H]2[C@@H]3[C@H](O)C[C@@H]4C[C@H](O)CC[C@]4(C)[C@H]3C[C@H](O)[C@]12C` [Cholate, cholic acid], in series [1], the “foaming of supernatant as indicator … Calbiosorb” value is on record as “−”. Moreover, the “foaming of supernatant as indicator … Purolite” value in series [2] was “−”. In addition, the “foaming of supernatant … Polystyrene” value in series [3] is listed as “+”.
As to `C[C@H](CCC(=O)NCCC[N+](C)(C)CCCS(=O)(=O)[O-])[C@H]1CC[C@H]2[C@@H]3[C@H](O)C[C@@H]4C[C@H](O)CC[C@]4(C)[C@H]3C[C@H](O)[C@]12C` [CHAPS, 3-[(3-Chloramidopropyl)-dimethylammonio]-1-propanesulfanate], the “foaming of supernatant as indicator … Calbiosorb” value in series [1] is “−”. In addition, the “foaming of supernatant … Polystyrene” value in series [3] is on record as “+”.
Regarding `CCCCCCCC(=O)O` [Caprylate, caprylic acid], the “foaming of supernatant as indicator … Calbiosorb” value in series [1] is reported as “−”. Also, in series [2], the “foaming of supernatant as indicator … Purolite” value is reported as “−”. In series [3], the “foaming of supernatant … Polystyrene” value was “+”.
For the molecule `C[C@H](CCC(=O)O)[C@H]1CC[C@H]2[C@@H]3CC[C@@H]4C[C@H](O)CC[C@]4(C)[C@H]3C[C@H](O)[C@]12C` [Deoxycholate, deoxycholic acid], the “foaming of supernatant as indicator … Calbiosorb” value in series [1] is given as “−”. The “foaming of supernatant as indicator … Purolite” value in series [2] was “−”. The “foaming of supernatant … Polystyrene” value in series [3] is listed as “+”.
Consider `CCCCCCCCO[C@@H]1O[C@H](CO)[C@@H](O)[C@H](O)[C@H]1O` [OG, n-octyl-B-D-glucopyranoside], for which the “foaming of supernatant as indicator … Calbiosorb” value in series [1] is reported as “−”. Also, the “foaming of supernatant as indicator … Purolite” value in series [2] is “+”. Further, in series [3], the “foaming of supernatant … Polystyrene” value was “+”. In addition, the “level effective at inactivating some viruses” value in the series with viruses is “about 0.03%”.
